Reference: patent US20120141479A1, “Histone Deacetylase Inhibitors Sensitize Cancer Cells To Epidermal Growth Factor Inhibitors” (priority 2007, published 2012)

Columns and labels:
Assay type in all cases: cell-based
[1] = test system: Panc02.03 pancreatic cancer cell line; experiment: Modified MTT growth inhibition assay; conditions: Panc 02.03
Description: (§1) Combination administrations were performed as sequential treatments where the HDAC inhibitor was administer prior to the EGFR inhibitor, or simultaneous treatments in selected cell lines. Concentrations of HDAC inhibitors and EGFR inhibitors are indicated as μM concentrations in all experiments. SNDX275 was administered in three increasing concentrations, with a variety of ranges depending upon the cell line.
(§2) Drugs were diluted in fresh medium before each experiment, and the final DMSO concentration was <0.1%. Growth inhibition was assessed using a modified MTT assay. 2×10^3 cells were plated in each well of 96-well flat-bottomed microtiter plates and drugs were added the next day. […] The microtiter plates were incubated for 4 hours at 37° C. The visible absorbance of each well was measured using an automated plate reader (Molecular Devices, Sunnyvale, Calif.), and data were analyzed using SlideWrite to determine the drug IC50.

[2] = test system: Panc04.03 pancreatic cancer cell line; experiment: Modified MTT growth inhibition assay; conditions: Panc 04.03
Description: as §1, §2

[3] = test system: 584 head & neck cancer cell line; experiment: Modified MTT growth inhibition assay; conditions: SNDX275 added as first drug
Description: as §1, §2

[4] = test system: Panc03.27 pancreatic cancer cell line; experiment: Modified MTT growth inhibition assay; conditions: Panc 03.27, both drugs added at the same time
Description: as §1, §2

[5] = test system: HS766T pancreatic cancer cell line; experiment: Modified MTT growth inhibition assay
Description: as §1, §2

[6] = test system: HPAFII pancreatic cancer cell line; experiment: Modified MTT growth inhibition assay; conditions: SNDX275 added as first drug
Description: as §1, §2

[7] = test system: 1483 head & neck cancer cell line; experiment: Modified MTT growth inhibition assay; conditions: SNDX275 added as first drug
Description: as §1, §2

[8] = test system: UMSCC22B head & neck cancer cell line; experiment: Modified MTT growth inhibition assay
Description: as §1, §2

[9] = test system: FaDu head & neck cancer cell line; experiment: Modified MTT growth inhibition assay
Description: as §1, §2

[10] = test system: MSK2922 head & neck cancer cell line; experiment: Modified MTT growth inhibition assay; conditions: SNDX275 added as first drug
Description: as §1, §2

[11] = test system: UMSCC19 head & neck cancer cell line; experiment: Modified MTT growth inhibition assay
Description: as §1, §2

[12] = test system: Detroit562 head & neck cancer cell line; experiment: Modified MTT growth inhibition assay
Description: as §1, §2

[13] = test system: E-cad expression in H520 cells; experiment: E-cad expression after HDAC inhibitor treatment; conditions: 24 hours after treatment with 4 or 10 μM MS-275
Description: (§3) RNA, Primers, and Quantitative Real-Time RT-PCR. Total RNA was prepared from NSCLC cell lines using the RNAeasy (Qiagen). During the preparation all samples were treated with RNase-free DNase 1 (10 mg/ml, Qiagen) prior to cDNA synthesis. cDNA was synthesized as part of the RT-PCR reaction from […] total RNA. Quantitative Real-Time RT-PCR assays were performed using the SYBR Green RT-PCR Kit (Qiagen) using a GeneAmp 5700 Sequence Detector (Applied Biosystems), which allows amplification and detection (by fluorescence) in the same tube, using a kinetic approach. Amplification data were analyzed by using GENEAMP 5700 SDS software, converted into cycle numbers at a set cycle threshold (Ct values) and quantified in relation to a standard. Human adult-lung (Clontech Lab. Inc) or human fetal-lung RNA (Stratagene) was used as standards in all the experiments. Standards were used at […]. In each experiment a no-template control was used as a control. To normalize for the amount of input cDNA, the quantified relative amount of the generated product was divided by the amount generated for the housekeeping gene beta-Actin. All samples were performed in triplicates.
(§4) Expression of E-cad was evaluated in these cell lines.

[14] = test system: E-cad expression in H157 cells; experiment: E-cad expression after HDAC inhibitor treatment; conditions: 24 hours after treatment with 4 or 10 μM MS-275
Description: as §3, §4

[15] = test system: E-cad expression in H460 cells; experiment: E-cad expression after HDAC inhibitor treatment; conditions: 24 hours after treatment with 4 or 10 μM MS-275
Description: as §3, §4

[16] = SNDX275 0.6 μM alone, both drugs added at the same time
[17] = SNDX275 1.0 μM alone, SNDX275 added as first drug
[18] = SNDX275 1.0 μM alone, both drugs added at the same time
[19] = SNDX275 3.0 μM alone, SNDX275 added as first drug
[20] = SNDX275 3.0 μM alone, both drugs added at the same time
[21] = SNDX275 6.0 μM alone, SNDX275 added as first drug
[22] = SNDX275 6.0 μM alone, both drugs added at the same time
[23] = SNDX275 0.60 μM alone, SNDX275 added as first drug
[24] = SNDX275 0.60 μM alone, both drugs added at the same time
[25] = SNDX275 2.00 μM alone, SNDX275 added as first drug
[26] = SNDX275 2.00 μM alone, both drugs added at the same time

Nc1ccccc1NC(=O)c1ccc(CNC(=O)OCc2cccnc2)cc1 [MS-275]
surviving ([1]; SNDX275 0.6 μM alone, SNDX275 added as first drug): 71.569%
surviving [1, 16]: 44.980%
surviving [1, 17]: 34.220%
surviving [1, 18]: 34.529%
surviving [1, 19]: 24.323%
surviving [1, 20]: 25.444%
surviving ([2]; SNDX275 0.3 μM alone, SNDX275 added as first drug): 71.205
surviving [2, 16]: 63.051%
surviving [2, 17]: 49.175
surviving [2, 18]: 28.676%
surviving [2, 19]: 37.954
surviving [2, 20]: 25.551%
surviving ([3]; SNDX275 0.3 μM alone): 84.045%
surviving ([3]; SNDX275 1.0 μM alone): 45.516%
surviving ([3]; SNDX275 2.0 μM alone): 20.656%
surviving ([4]; SNDX275 0.10 μM alone): 78.263%
surviving ([4]; SNDX275 2.00 μM alone): 38.926%
surviving ([4]; SNDX275 6.00 μM alone): 21.757%
surviving [5, 17]: 77.851%
surviving [5, 18]: 78.939%
surviving [5, 21]: 40.175%
surviving [5, 22]: 55.038%
surviving ([5]; SNDX275 10.0 μM alone, SNDX275 added as first drug): 77.851%
surviving ([5]; SNDX275 10.0 μM alone, both drugs added at the same time): 32.797%
surviving ([6]; SNDX275 0.10 μM alone): 74.635%
surviving ([6]; SNDX275 0.30 μM alone): 42.098%
surviving ([6]; SNDX275 1.00 μM alone): 28.287%
surviving ([7]; SNDX275 0.6 μM alone): 79.246%
surviving ([7]; SNDX275 2.0 μM alone): 51.509%
surviving ([7]; SNDX275 3.0 μM alone): 31.776%
surviving [8, 17]: 73.156%
surviving [8, 18]: 76.730%
surviving ([8]; SNDX275 2.0 μM alone, SNDX275 added as first drug): 55.978%
surviving ([8]; SNDX275 2.0 μM alone, both drugs added at the same time): 63.169%
surviving [8, 21]: 25.180%
surviving [8, 22]: 55.057%
surviving ([9]; SNDX275 0.30 μM alone, SNDX275 added as first drug): 69.008%
surviving ([9]; SNDX275 0.30 μM alone, both drugs added at the same time): 87.506%
surviving [9, 23]: 48.451%
surviving [9, 24]: 73.418%
surviving [9, 25]: 20.262%
surviving [9, 26]: 30.504%
surviving ([10]; SNDX275 0.3 μM alone): 68.519%
surviving ([10]; SNDX275 0.6 μM alone): 42.857%
surviving ([10]; SNDX275 1.0 μM alone): 24.438%
surviving ([11]; SNDX275 0.60 μM alone, SNDX275 added as first drug (first table)): 73.417%
surviving ([11]; SNDX275 0.60 μM alone, SNDX275 added as first drug (second table)): 83.778%
surviving ([11]; SNDX275 2.00 μM alone, SNDX275 added as first drug (first table)): 54.951%
surviving ([11]; SNDX275 2.00 μM alone, SNDX275 added as first drug (second table)): 46.466%
surviving ([11]; SNDX275 6.00 μM alone, SNDX275 added as first drug (first table)): 24.242%
surviving ([11]; SNDX275 6.00 μM alone, SNDX275 added as first drug (second table)): 37.033%
surviving ([12]; SNDX275 0.06 μM alone, SNDX275 added as first drug): 75.017%
surviving ([12]; SNDX275 0.06 μM alone, both drugs added at the same time): 79.829%
surviving [12, 23]: 58.925%
surviving [12, 24]: 72.276%
surviving [12, 25]: 23.887%
surviving [12, 26]: 28.832%
upregulation of E-cad expression [13]: Eight to twelve fold
upregulation of E-cad expression [14]: Eight to twelve fold
upregulation of E-cad expression [15]: Eight to twelve fold
